Active and inactive are the calls of the source. Bounds are passed on as bounds.

Experiment [1] relates to Streptococcus sp. 'group A'. The experiment in a line: growth inhibition of control SK(-) GAS strain, dose response, counter-screen for streptokinase expression inhibitor project, luminescence, kanamycin, BacTiterGlo, confirmation (AID 1900). Format: functional, organism-based.
Experiment [2] has as its system Streptococcus. In words: Group A Streptococcus viability loss, dose response, counter-screen for streptokinase expression inhibitor project, luminescence, BacTiterGlo (AID 1915).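 Also: potency for reduction of bacterial viability or growth.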 It counts as functional, organism-based.
In experiment [3] the test system is INS1. In words: beta cell apoptosis inhibitors, cytokine rescue, dose response, luminescence, retest (AID 449756).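 Also: cell death triggered by IL-1 beta plus TNF-alpha plus IFN-gamma mixture; protective hits raise ATP signal compared with cytokine alone wells.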 The following applies: Rattus norvegicus. It counts as functional, cell-based.
Experiment [4] concerns the target T1, Caspase-3 (Homo sapiens, UniProt P42574).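 Also: Dose-response selectivity test against caspase-3 for candidate inhibitors of sentrin-specific proteases (SENPs).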
T1 sequence (P42574 whole entry): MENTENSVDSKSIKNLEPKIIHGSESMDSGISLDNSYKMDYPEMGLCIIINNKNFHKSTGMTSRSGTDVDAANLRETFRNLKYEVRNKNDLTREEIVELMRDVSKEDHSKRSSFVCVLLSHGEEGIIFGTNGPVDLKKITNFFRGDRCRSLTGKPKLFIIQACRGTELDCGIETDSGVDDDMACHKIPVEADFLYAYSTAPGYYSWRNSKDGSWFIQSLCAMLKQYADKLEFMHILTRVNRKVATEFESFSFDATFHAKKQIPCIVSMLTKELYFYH
Format: functional.

For experiment [5], the target named is T2, Histone-lysine N-methyltransferase NSD2 (Homo sapiens, UniProt O96028).
T2 sequence (O96028 whole entry): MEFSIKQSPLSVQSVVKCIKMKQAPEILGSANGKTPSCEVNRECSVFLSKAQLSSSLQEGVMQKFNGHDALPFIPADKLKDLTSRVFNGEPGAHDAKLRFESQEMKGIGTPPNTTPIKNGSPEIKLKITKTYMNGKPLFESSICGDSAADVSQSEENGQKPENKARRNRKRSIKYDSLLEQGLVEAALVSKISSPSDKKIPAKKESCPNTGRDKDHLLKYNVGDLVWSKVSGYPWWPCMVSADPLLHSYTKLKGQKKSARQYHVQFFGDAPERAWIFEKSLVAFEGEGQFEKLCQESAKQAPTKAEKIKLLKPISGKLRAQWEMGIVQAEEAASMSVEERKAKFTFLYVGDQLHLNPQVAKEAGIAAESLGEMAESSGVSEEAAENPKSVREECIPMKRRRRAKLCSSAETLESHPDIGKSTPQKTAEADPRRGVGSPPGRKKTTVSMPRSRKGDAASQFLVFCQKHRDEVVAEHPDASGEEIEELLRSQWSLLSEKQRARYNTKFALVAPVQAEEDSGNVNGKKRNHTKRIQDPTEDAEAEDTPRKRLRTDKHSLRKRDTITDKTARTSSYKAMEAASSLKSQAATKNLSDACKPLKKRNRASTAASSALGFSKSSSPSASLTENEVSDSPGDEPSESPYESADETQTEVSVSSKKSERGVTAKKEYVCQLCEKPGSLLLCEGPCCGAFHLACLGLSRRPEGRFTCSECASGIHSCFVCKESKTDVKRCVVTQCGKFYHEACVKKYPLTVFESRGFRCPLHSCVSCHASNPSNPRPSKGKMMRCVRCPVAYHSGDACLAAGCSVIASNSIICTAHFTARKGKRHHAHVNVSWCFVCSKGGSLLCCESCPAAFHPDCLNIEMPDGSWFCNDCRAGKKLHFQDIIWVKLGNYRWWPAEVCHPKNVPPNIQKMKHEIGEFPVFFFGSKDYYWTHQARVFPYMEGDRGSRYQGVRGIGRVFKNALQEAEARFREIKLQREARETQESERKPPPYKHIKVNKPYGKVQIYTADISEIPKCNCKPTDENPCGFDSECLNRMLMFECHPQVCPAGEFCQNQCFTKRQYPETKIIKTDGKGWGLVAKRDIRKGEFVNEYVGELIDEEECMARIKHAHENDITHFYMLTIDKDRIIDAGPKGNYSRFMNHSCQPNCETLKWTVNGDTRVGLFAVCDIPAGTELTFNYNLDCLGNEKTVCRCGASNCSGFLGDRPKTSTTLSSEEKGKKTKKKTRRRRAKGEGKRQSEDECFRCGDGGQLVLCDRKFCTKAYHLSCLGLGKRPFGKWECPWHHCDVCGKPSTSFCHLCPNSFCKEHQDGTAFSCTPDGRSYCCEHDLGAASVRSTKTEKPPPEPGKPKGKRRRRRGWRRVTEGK
Format: biochemical.

Experiment [6] deals with Dual specificity tyrosine-phosphorylation-regulated kinase 1B (Homo sapiens, UniProt Q9Y463). The experiment in a line: Navigating the Kinome. Panel member name: DYRK1B. Format: functional.
Dual specificity tyrosine-phosphorylation-regulated kinase 1B, sequence (Q9Y463 whole entry): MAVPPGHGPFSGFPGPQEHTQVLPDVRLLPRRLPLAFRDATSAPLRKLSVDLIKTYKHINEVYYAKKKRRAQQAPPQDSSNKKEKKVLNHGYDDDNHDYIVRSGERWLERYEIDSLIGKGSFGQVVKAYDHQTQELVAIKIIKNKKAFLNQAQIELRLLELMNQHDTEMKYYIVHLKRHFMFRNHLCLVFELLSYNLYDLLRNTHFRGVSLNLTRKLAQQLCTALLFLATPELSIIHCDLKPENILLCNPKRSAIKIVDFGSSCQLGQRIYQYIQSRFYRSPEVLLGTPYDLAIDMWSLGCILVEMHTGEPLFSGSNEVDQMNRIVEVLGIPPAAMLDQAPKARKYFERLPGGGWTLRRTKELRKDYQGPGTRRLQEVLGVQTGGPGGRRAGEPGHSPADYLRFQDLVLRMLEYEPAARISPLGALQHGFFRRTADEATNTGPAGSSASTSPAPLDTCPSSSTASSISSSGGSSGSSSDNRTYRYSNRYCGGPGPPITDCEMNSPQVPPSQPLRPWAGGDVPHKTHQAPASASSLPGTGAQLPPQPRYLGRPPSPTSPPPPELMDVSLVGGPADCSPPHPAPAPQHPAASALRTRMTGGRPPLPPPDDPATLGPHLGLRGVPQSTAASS
Experiment [7] deals with cAMP-dependent protein kinase catalytic subunit PRKX (Homo sapiens, UniProt P51817). It counts as functional.
cAMP-dependent protein kinase catalytic subunit PRKX, sequence (P51817 whole entry): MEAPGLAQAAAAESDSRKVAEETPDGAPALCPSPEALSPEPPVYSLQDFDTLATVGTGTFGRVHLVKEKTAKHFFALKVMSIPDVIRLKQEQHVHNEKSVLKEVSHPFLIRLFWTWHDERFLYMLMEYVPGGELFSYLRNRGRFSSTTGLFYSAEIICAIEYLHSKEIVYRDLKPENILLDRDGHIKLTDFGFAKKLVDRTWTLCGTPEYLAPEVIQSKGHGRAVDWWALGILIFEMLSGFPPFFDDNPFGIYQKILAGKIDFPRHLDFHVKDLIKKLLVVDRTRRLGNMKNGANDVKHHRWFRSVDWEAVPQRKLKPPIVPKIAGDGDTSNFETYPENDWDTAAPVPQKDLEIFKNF
Experiment [8] concerns the target Vascular endothelial growth factor receptor 1 (Homo sapiens, UniProt P17948). It counts as functional.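 Also: measured within a kinome-wide profiling panel, FLT1 as the panel member.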
The target in experiment [9] is Ribosomal protein S6 kinase alpha-3 (Homo sapiens, UniProt P51812). Format: functional.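 Also: measured within a kinome-wide profiling panel.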
Ribosomal protein S6 kinase alpha-3, sequence (P51812 whole entry): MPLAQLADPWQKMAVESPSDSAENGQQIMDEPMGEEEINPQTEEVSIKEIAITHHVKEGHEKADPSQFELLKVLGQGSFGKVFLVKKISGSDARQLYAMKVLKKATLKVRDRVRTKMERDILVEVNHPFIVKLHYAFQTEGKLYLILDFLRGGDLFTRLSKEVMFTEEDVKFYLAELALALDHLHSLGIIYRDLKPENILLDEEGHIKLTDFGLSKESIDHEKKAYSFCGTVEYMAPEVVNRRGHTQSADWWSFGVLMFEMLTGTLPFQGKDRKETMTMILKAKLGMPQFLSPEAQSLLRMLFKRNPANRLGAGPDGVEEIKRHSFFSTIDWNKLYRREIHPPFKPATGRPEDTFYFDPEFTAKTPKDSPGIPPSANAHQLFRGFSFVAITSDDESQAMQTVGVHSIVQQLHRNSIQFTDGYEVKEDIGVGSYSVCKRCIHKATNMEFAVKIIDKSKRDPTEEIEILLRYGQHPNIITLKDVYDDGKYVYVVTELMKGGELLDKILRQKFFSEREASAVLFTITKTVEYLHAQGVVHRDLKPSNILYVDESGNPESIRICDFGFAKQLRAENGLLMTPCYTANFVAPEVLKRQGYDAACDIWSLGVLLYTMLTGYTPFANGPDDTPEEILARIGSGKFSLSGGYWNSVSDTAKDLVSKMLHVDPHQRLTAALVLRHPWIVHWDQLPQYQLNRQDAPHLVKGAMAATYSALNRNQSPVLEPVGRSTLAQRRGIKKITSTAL
The target in experiment [10] is Receptor-type tyrosine-protein kinase FLT3 (Homo sapiens, UniProt P36888). It counts as functional.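 Also: FLT3 was tested as one member of a kinome-wide kinase panel.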
Experiment [11] deals with Macrophage colony-stimulating factor 1 receptor (Homo sapiens, UniProt P07333). It counts as functional.
Experiment [12] deals with Protein kinase C theta type (Homo sapiens, UniProt Q04759). The experiment in a line: Navigating the Kinome. Panel member name: PRKCQ. Format: functional.
Protein kinase C theta type, sequence (Q04759 whole entry): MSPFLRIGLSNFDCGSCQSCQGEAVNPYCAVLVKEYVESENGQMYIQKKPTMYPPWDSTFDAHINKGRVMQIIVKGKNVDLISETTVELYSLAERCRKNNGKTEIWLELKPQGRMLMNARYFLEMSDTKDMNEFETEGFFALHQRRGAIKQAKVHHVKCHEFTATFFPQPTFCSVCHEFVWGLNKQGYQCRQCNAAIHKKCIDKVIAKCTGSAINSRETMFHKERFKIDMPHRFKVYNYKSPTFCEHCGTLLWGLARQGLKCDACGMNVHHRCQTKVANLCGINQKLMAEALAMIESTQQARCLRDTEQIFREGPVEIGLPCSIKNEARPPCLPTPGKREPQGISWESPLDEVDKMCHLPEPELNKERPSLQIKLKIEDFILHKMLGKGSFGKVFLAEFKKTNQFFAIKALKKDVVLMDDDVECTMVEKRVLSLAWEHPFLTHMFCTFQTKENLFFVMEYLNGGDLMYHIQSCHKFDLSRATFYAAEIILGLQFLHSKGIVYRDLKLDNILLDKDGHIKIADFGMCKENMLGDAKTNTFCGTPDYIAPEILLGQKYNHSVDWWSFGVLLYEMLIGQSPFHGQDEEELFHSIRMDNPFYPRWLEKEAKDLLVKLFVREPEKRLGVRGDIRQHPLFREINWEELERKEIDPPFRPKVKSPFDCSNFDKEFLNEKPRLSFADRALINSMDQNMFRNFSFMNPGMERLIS
Experiment [13] deals with Leukocyte tyrosine kinase receptor (Homo sapiens, UniProt P29376). The experiment in a line: Navigating the Kinome. Panel member name: LTK. Format: functional.
Leukocyte tyrosine kinase receptor, sequence (P29376 whole entry): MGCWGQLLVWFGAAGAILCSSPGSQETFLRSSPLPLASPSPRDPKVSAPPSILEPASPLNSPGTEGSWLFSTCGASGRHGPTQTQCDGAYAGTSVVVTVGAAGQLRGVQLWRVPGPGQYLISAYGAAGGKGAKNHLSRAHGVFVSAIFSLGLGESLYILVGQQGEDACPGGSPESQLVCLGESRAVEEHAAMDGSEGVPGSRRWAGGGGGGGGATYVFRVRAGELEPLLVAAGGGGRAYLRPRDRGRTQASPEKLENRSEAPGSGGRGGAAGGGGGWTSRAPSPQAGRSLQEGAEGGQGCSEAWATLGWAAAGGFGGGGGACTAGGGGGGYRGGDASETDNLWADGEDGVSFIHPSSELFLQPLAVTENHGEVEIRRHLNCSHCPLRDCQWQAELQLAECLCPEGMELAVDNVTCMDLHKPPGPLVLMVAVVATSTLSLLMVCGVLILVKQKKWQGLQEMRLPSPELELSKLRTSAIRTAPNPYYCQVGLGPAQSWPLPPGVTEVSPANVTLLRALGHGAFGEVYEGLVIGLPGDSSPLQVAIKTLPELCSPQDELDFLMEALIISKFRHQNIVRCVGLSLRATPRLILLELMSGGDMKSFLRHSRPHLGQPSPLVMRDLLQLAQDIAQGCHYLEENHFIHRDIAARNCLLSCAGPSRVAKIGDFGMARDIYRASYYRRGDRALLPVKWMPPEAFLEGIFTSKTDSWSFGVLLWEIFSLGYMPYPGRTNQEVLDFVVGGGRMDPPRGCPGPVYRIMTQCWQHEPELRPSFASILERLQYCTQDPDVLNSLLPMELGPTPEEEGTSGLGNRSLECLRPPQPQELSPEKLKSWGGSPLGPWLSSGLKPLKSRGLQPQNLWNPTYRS
Experiment [14] concerns the target High affinity nerve growth factor receptor (Homo sapiens, UniProt P04629). Format: functional.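 Also: NTRK1 tested as one member of a kinome-wide profiling panel.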
Experiment [15] addresses Serine/threonine-protein kinase TAO1 (Homo sapiens, UniProt Q7L7X3). Format: functional.
Experiment [16] deals with Death-associated protein kinase 3 (Homo sapiens, UniProt O43293). Format: functional.
For experiment [17], the target named is Glycogen synthase kinase-3 alpha (Homo sapiens, UniProt P49840). Format: functional.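 Also: GSK3A result taken from a broad kinome-wide kinase panel.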
Experiment [18] concerns the target Casein kinase I isoform alpha (Homo sapiens, UniProt P48729). It counts as functional.
Experiment [19] has as its target Tyrosine-protein kinase Fyn (Homo sapiens, UniProt P06241). It counts as functional.
Experiment [20] has as its target Serine/threonine-protein kinase D3 (Homo sapiens, UniProt O94806). Format: functional.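 Also: determined within a kinase panel screen, with PRKCN as the panel member.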
The target in experiment [21] is Activated CDC42 kinase 1 (Homo sapiens, UniProt Q07912). In words: Navigating the Kinome. Panel member name: ACK1. It counts as functional.
Activated CDC42 kinase 1, sequence (Q07912 whole entry): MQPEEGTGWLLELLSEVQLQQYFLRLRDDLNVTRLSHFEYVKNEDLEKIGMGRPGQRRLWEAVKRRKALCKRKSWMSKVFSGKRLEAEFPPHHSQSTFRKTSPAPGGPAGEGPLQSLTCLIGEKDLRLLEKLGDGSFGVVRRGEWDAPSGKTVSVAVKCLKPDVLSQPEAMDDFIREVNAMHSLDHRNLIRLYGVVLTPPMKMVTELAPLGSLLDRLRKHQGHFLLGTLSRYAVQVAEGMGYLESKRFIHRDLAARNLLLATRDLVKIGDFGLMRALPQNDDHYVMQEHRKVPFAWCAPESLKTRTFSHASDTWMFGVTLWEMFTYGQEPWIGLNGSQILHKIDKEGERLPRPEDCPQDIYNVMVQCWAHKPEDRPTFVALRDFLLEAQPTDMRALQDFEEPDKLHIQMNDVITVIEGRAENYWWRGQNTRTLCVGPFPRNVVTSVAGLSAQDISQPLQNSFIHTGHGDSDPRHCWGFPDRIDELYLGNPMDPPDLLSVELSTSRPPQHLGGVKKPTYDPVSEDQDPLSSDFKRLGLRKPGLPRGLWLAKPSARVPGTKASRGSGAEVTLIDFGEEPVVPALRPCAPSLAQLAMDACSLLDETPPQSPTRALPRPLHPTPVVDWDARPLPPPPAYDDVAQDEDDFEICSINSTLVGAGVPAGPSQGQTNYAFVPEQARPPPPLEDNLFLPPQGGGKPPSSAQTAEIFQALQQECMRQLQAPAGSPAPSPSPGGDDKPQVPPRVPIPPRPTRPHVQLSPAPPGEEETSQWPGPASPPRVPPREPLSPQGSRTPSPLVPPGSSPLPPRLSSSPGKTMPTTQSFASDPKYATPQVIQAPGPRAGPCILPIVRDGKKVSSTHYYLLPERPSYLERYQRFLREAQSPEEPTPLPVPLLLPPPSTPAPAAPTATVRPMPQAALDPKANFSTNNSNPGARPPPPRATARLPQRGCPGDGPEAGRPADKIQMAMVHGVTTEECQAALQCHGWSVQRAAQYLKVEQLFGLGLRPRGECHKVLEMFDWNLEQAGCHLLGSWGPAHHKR
In experiment [22] the target is Dual specificity tyrosine-phosphorylation-regulated kinase 1A (Homo sapiens, UniProt Q13627). Format: functional.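 Also: measured against DYRK1A as one member of a broad kinome profiling panel.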
For experiment [23], the target named is 5'-AMP-activated protein kinase catalytic subunit alpha-1 (Homo sapiens, UniProt Q13131). It counts as functional.

Casein kinase I isoform alpha, sequence (P48729 whole entry, canonical isoform): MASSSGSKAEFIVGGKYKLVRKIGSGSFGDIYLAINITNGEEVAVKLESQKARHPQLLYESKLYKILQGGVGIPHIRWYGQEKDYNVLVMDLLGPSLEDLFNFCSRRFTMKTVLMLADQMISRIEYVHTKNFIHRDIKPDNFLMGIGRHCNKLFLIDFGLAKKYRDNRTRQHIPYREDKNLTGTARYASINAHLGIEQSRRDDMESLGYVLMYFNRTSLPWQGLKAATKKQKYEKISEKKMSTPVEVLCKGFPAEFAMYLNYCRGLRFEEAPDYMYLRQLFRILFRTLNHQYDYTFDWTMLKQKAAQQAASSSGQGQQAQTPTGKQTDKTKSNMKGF

`CNC[C@H](Cc1ccccc1)NC[C@@H](Cc1cccc2ccccc12)NCCc1ccc(C)cc1`: the concentration for a half-maximal effect (EC50) in experiment [1] is 4.79 µM (active); in [2], 7.51 µM (active). For the same compound, the AC50 in experiment [3] is 7.38 µM (active).
Consider `Nc1nnc2c(n1)CCCC2`, for which the half-maximal inhibitory concentration (IC50) in [4] was 14.3 µM (active). Besides, in [5], the AC50 was 16.5 µM (active).
Turning to `O=C(Cc1ccccc1Cl)NC1(O)C(=O)c2ccccc2C1=O`, the AC50 in [5] is 8.16 µM (active).
As for `O=C(N/N=C/c1c(O)ccc2ccccc12)c1[nH]ncc1Br`, in experiment [4], the IC50 is 27.7 µM (active). Moreover, the AC50 in experiment [3] was 0.558 µM (active).
In the case of `Nc1c(-c2ccc(NC(=O)Nc3cccc(C(F)(F)F)c3)cc2)cnc2c(-c3ccc4c(c3)OCO4)cnn12`, the Ki in experiment [6] was > 2.51 µM (inactive); in experiment [7] it was > 3.16 µM (inactive); in [8] it was 0.251 µM (active); in experiment [9] it was > 3.98 µM (inactive); in experiment [10], 0.0501 µM (active); in experiment [11], 0.0631 µM (active). Further, the Ki is > 2.51 µM (inactive) in experiment [12]; > 2.51 µM (inactive) in [13]; 0.1 µM (active) in experiment [14]; > 6.31 µM (inactive) in [15]; > 5.01 µM (inactive) in experiment [16]; > 3.98 µM (inactive) in [17]. Also, the Ki in [18] is > 3.98 µM (inactive); in [19], 0.316 µM (active); in experiment [20] it was > 3.98 µM (inactive); in [21], 0.2 µM (active); in experiment [22], > 2 µM (inactive); in [23] it was > 3.16 µM (inactive).
Take `O=C(Nc1cc(-c2c[nH]c3ncccc23)cc(Cl)n1)c1ccccc1`: the inhibition constant Ki in [6] is 0.316 µM (active); in experiment [7] it was > 3.16 µM (inactive); in experiment [8] it was > 3.98 µM (inactive); in experiment [9] it was > 3.98 µM (inactive); in [10], > 2.51 µM (inactive); in experiment [11], > 2.51 µM (inactive). In addition, the Ki is > 2.51 µM (inactive) in [12]; > 2.51 µM (inactive) in [13]; > 3.16 µM (inactive) in [14]; > 6.31 µM (inactive) in experiment [15]; > 3.98 µM (inactive) in experiment [16]; > 3.98 µM (inactive) in experiment [17]. In addition, the Ki is > 2.51 µM (inactive) in experiment [18]; > 6.31 µM (inactive) in [19]; > 3.98 µM (inactive) in [20]; > 3.98 µM (inactive) in experiment [21]; 0.251 µM (active) in experiment [22]; > 3.16 µM (inactive) in [23].
On to `CCN1C(=Cc2sc3ccccc3[n+]2C)C=Cc2cccc(C)c21`, for which the EC50 in experiment [1] is 4.08 µM (active); in experiment [2], 8.99 µM (active).
